# From patent US20230136600A1, “Method and device for screening antigen epitope polypeptide” (priority 2020, published 2023)
# System: Balb/c mice
# Assay: Polypeptide chip-based vaccine immunogenicity scoring system
# Format: in vivo
# Design: key to A2: whether the 95 percentile of the last sampling is increased compared with the end point: Y = rise; N = no rise
# Settings: for A: 95 percentile grouping number score / B: Mouse performance score: total score = 5; for C1: #A timing-sequence response peptide fragment set / C2: #B vaccine specificity peptide fragment set / C3: Intersection of A and B / C4: Percentage of the intersection in set B / C: Timing-sequence response and specificity score: value of the whole mix
# Protocol: Data distribution and characteristics thereof are analyzed based on a) and b), a polypeptide chip-based vaccine immunogenicity scoring system (referring to Table 7) is designed.
# 10 combinations are evaluated by the polypeptide chip-based vaccine immunogenicity scoring system. An evaluation method is consistent with that in Embodiment II. Evaluation results are show in the table below.
# This embodiment is consistent with Embodiment II. Each combination is evaluated by the polypeptide chip-based vaccine immunogenicity scoring system. Evaluation results are show in the table below.
# [1] = Embodiment III, polypeptide-KLH
# [2] = Embodiment III, polypeptide-KLH, Mix1-10
# [3] = Embodiment III, polypeptide-KLH, A*3 + B*2 + C*1
# [4] = adjuvant AddaVax, 7 peptides co-immunized in mice
# [5] = adjuvant Adju-Phos, 7 peptides co-immunized in mice
# [6] = adjuvant Alhydrogel, 7 peptides co-immunized in mice
# [7] = adjuvant Imjet Alumn, 7 peptides co-immunized in mice
# [8] = adjuvant MA103A, 7 peptides co-immunized in mice
# [9] = adjuvant MA103B, 7 peptides co-immunized in mice
sequence,measurement,setting,value
SVYAWNRKR (SARS-CoV-2) [SEQ ID NO:3],A2: whether the 95 percentile of the last sampling is increased compared with the end point,"Embodiment II, Combination 1",N
same,B1: D 0-D 14 95 percentile rise in the number of mice,"Embodiment II, Combination 1",5
same,B2: D 0-D 21 95 percentile rise in the number of mice,"Embodiment II, Combination 1",5
same,B3: D 14-D 21 95 percentile rise in the number of mice,"Embodiment II, Combination 1",1
same,B4: D 21-D 28 95 percentile rise in the number of mice,"Embodiment II, Combination 1",2
same,Total single peptide,"Embodiment II, Combination 1, A*3 + B*2 + C*1",10.7
same,A: 95 percentile grouping number score,"Embodiment II, Combination 1",1
same,B: Mouse performance score,"Embodiment II, Combination 1",3.6
same,A1: difference between a highest median and a D 0 median (95 percentile),"Embodiment II, mice immunized with Combination 1",0.05
same,B1: D 0-D 14 95 percentile rise in the number of mice,[1],3
same,B2: D 0-D 21 95 percentile rise in the number of mice,[1],3
same,B3: D 14-D 21 95 percentile rise in the number of mice,[1],2
same,B4: D 21-D 28 95 percentile rise in the number of mice,[1],1
same,A1: difference between a highest median and a D 0 median (95 percentile),[2],0.13
same,A2: whether the 95 percentile of the last sampling is increased compared with the end point,[2],N
same,Total single peptide,[3],18.7
same,A: 95 percentile grouping number score,[1],4.5
same,B: Mouse performance score,[1],2.1
same,C1: #A timing-sequence response peptide fragment set,[1],823
same,C2: #B vaccine specificity peptide fragment set,[1],398
same,C3: Intersection of A and B,[1],7
same,C4: Percentage of the intersection in set B,[1],1.759
same,C: Timing-sequence response and specificity score,[1],1
same,1) 95 percentile grouping number A,[4],4
same,1) 95 percentile grouping number A1,[4],0.05
same,2) Mouse performance B,[4],3.5
same,2) Mouse performance B1,[4],3
same,2) Mouse performance B2,[4],5
same,2) Mouse performance B3,[4],4
same,3) Timing-sequence response and specificity C,[4],0
same,3) Timing-sequence response and specificity C1,[4],237
same,3) Timing-sequence response and specificity C2,[4],1244
same,3) Timing-sequence response and specificity C3,[4],0
same,3) Timing-sequence response and specificity C4,[4],0.000
same,Total single peptide,[4],19
same,1) 95 percentile grouping number A,[5],3.5
same,1) 95 percentile grouping number A1,[5],0.05
same,2) Mouse performance B,[5],3
same,2) Mouse performance B1,[5],4
same,2) Mouse performance B2,[5],5
same,2) Mouse performance B3,[5],2
same,3) Timing-sequence response and specificity C,[5],0
same,3) Timing-sequence response and specificity C1,[5],203
same,3) Timing-sequence response and specificity C2,[5],1244
same,3) Timing-sequence response and specificity C3,[5],0
same,3) Timing-sequence response and specificity C4,[5],0.000
same,Total single peptide,[5],16.5
same,1) 95 percentile grouping number A,[6],1
same,1) 95 percentile grouping number A1,[6],0.012
same,2) Mouse performance B,[6],0.8
same,2) Mouse performance B1,[6],2
same,2) Mouse performance B2,[6],1
same,2) Mouse performance B3,[6],0
same,3) Timing-sequence response and specificity C,[6],1
same,3) Timing-sequence response and specificity C1,[6],123
same,3) Timing-sequence response and specificity C2,[6],1244
same,3) Timing-sequence response and specificity C3,[6],2
same,3) Timing-sequence response and specificity C4,[6],0.161
same,Total single peptide,[6],5.1
same,1) 95 percentile grouping number A,[7],5
same,1) 95 percentile grouping number A1,[7],0.09
same,2) Mouse performance B,[7],2.7
same,2) Mouse performance B1,[7],5
same,2) Mouse performance B2,[7],4
same,2) Mouse performance B3,[7],1
same,3) Timing-sequence response and specificity C,[7],1
same,3) Timing-sequence response and specificity C1,[7],100
same,3) Timing-sequence response and specificity C2,[7],1244
same,3) Timing-sequence response and specificity C3,[7],3
same,3) Timing-sequence response and specificity C4,[7],0.241
same,Total single peptide,[7],20.9
same,1) 95 percentile grouping number A,[8],5
same,1) 95 percentile grouping number A1,[8],0.08
same,2) Mouse performance B,[8],2.9
same,2) Mouse performance B1,[8],5
same,2) Mouse performance B2,[8],5
same,2) Mouse performance B3,[8],1
same,3) Timing-sequence response and specificity C,[8],1
same,3) Timing-sequence response and specificity C1,[8],260
same,3) Timing-sequence response and specificity C2,[8],1244
same,3) Timing-sequence response and specificity C3,[8],3
same,3) Timing-sequence response and specificity C4,[8],0.241
same,Total single peptide,[8],21.3
same,1) 95 percentile grouping number A,[9],3.5
same,1) 95 percentile grouping number A1,[9],0.05
same,2) Mouse performance B,[9],2.9
same,2) Mouse performance B1,[9],5
same,2) Mouse performance B2,[9],5
same,2) Mouse performance B3,[9],1
same,3) Timing-sequence response and specificity C,[9],0
same,3) Timing-sequence response and specificity C1,[9],153
same,3) Timing-sequence response and specificity C2,[9],1244
same,3) Timing-sequence response and specificity C3,[9],0
same,3) Timing-sequence response and specificity C4,[9],0.000
same,Total single peptide,[9],16.3
YTNDKACPL (SARS-CoV-2) [SEQ ID NO:1],B1: D 0-D 14 95 percentile rise in the number of mice,[1],2
same,B2: D 0-D 21 95 percentile rise in the number of mice,[1],2
same,B3: D 14-D 21 95 percentile rise in the number of mice,[1],1
same,B4: D 21-D 28 95 percentile rise in the number of mice,[1],1
same,A1: difference between a highest median and a D 0 median (95 percentile),[2],0.11
same,A2: whether the 95 percentile of the last sampling is increased compared with the end point,[2],Y
same,Total single peptide,[3],18.3
same,A: 95 percentile grouping number score,[1],5
same,B: Mouse performance score,[1],1.4
same,C1: #A timing-sequence response peptide fragment set,[1],257
same,C2: #B vaccine specificity peptide fragment set,[1],682
same,C3: Intersection of A and B,[1],3
same,C4: Percentage of the intersection in set B,[1],0.440
same,C: Timing-sequence response and specificity score,[1],0.5
RGGSYTNDKAC (SARS-CoV-2) [SEQ ID NO:2],B1: D 0-D 14 95 percentile rise in the number of mice,[1],3
same,B2: D 0-D 21 95 percentile rise in the number of mice,[1],3
same,B3: D 14-D 21 95 percentile rise in the number of mice,[1],2
same,B4: D 21-D 28 95 percentile rise in the number of mice,[1],0
same,A1: difference between a highest median and a D 0 median (95 percentile),[2],0.14
same,A2: whether the 95 percentile of the last sampling is increased compared with the end point,[2],N
same,Total single peptide,[3],18.3
same,A: 95 percentile grouping number score,[1],4.5
same,B: Mouse performance score,[1],1.9
same,C1: #A timing-sequence response peptide fragment set,[1],288
same,C2: #B vaccine specificity peptide fragment set,[1],268
same,C3: Intersection of A and B,[1],4
same,C4: Percentage of the intersection in set B,[1],1.493
same,C: Timing-sequence response and specificity score,[1],1
ALDPLSETKCT (SARS-CoV-2) [SEQ ID NO:4],B1: D 0-D 14 95 percentile rise in the number of mice,[1],2
same,B2: D 0-D 21 95 percentile rise in the number of mice,[1],3
same,B3: D 14-D 21 95 percentile rise in the number of mice,[1],2
same,B4: D 21-D 28 95 percentile rise in the number of mice,[1],0
same,A1: difference between a highest median and a D 0 median (95 percentile),[2],0.15
same,A2: whether the 95 percentile of the last sampling is increased compared with the end point,[2],N
same,Total single peptide,[3],17.7
same,A: 95 percentile grouping number score,[1],4.5
same,B: Mouse performance score,[1],1.6
same,C1: #A timing-sequence response peptide fragment set,[1],1494
same,C2: #B vaccine specificity peptide fragment set,[1],190
same,C3: Intersection of A and B,[1],2
same,C4: Percentage of the intersection in set B,[1],1.053
same,C: Timing-sequence response and specificity score,[1],1
KVFRSSVLHSTQ [SEQ ID NO:6],B1: D 0-D 14 95 percentile rise in the number of mice,[1],3
same,B2: D 0-D 21 95 percentile rise in the number of mice,[1],3
same,B3: D 14-D 21 95 percentile rise in the number of mice,[1],0
same,B4: D 21-D 28 95 percentile rise in the number of mice,[1],2
same,A1: difference between a highest median and a D 0 median (95 percentile),[2],0.09
same,A2: whether the 95 percentile of the last sampling is increased compared with the end point,[2],Y
same,Total single peptide,[3],16.3
same,A: 95 percentile grouping number score,[1],4
same,B: Mouse performance score,[1],1.9
same,C1: #A timing-sequence response peptide fragment set,[1],1212
same,C2: #B vaccine specificity peptide fragment set,[1],389
same,C3: Intersection of A and B,[1],1
same,C4: Percentage of the intersection in set B,[1],0.257
same,C: Timing-sequence response and specificity score,[1],0.5
DNQDLNGNWY (SARS-CoV-2) [SEQ ID NO:31],B1: D 0-D 14 95 percentile rise in the number of mice,[1],2
same,B2: D 0-D 21 95 percentile rise in the number of mice,[1],3
same,B3: D 14-D 21 95 percentile rise in the number of mice,[1],2
same,B4: D 21-D 28 95 percentile rise in the number of mice,[1],0
same,A1: difference between a highest median and a D 0 median (95 percentile),[2],0.93
same,A2: whether the 95 percentile of the last sampling is increased compared with the end point,[2],N
same,Total single peptide,[3],14.2
same,A: 95 percentile grouping number score,[1],3.5
same,B: Mouse performance score,[1],1.6
same,C1: #A timing-sequence response peptide fragment set,[1],511
same,C2: #B vaccine specificity peptide fragment set,[1],364
same,C3: Intersection of A and B,[1],1
same,C4: Percentage of the intersection in set B,[1],0.275
same,C: Timing-sequence response and specificity score,[1],0.5
LPFNDGVYF (SARS-CoV-2) [SEQ ID NO:14],B1: D 0-D 14 95 percentile rise in the number of mice,[1],3
same,B2: D 0-D 21 95 percentile rise in the number of mice,[1],2
same,B3: D 14-D 21 95 percentile rise in the number of mice,[1],2
same,B4: D 21-D 28 95 percentile rise in the number of mice,[1],3
same,A1: difference between a highest median and a D 0 median (95 percentile),[2],0.09
same,A2: whether the 95 percentile of the last sampling is increased compared with the end point,[2],Y
same,Total single peptide,[3],17.1
same,A: 95 percentile grouping number score,[1],4
same,B: Mouse performance score,[1],2.3
same,C1: #A timing-sequence response peptide fragment set,[1],133
same,C2: #B vaccine specificity peptide fragment set,[1],431
same,C3: Intersection of A and B,[1],1
same,C4: Percentage of the intersection in set B,[1],0.232
same,C: Timing-sequence response and specificity score,[1],0.5
DYNYKLPDD (SARS-CoV-2) [SEQ ID NO:11],B1: D 0-D 14 95 percentile rise in the number of mice,[1],3
same,B2: D 0-D 21 95 percentile rise in the number of mice,[1],3
same,B3: D 14-D 21 95 percentile rise in the number of mice,[1],1
same,B4: D 21-D 28 95 percentile rise in the number of mice,[1],2
same,A1: difference between a highest median and a D 0 median (95 percentile),[2],0.12
same,A2: whether the 95 percentile of the last sampling is increased compared with the end point,[2],Y
same,Total single peptide,[3],20.2
same,A: 95 percentile grouping number score,[1],5
same,B: Mouse performance score,[1],2.1
same,C1: #A timing-sequence response peptide fragment set,[1],288
same,C2: #B vaccine specificity peptide fragment set,[1],268
same,C3: Intersection of A and B,[1],4
same,C4: Percentage of the intersection in set B,[1],1.493
same,C: Timing-sequence response and specificity score,[1],1
VNKGEDIQLLKS [SEQ ID NO:27],B1: D 0-D 14 95 percentile rise in the number of mice,[1],3
same,B2: D 0-D 21 95 percentile rise in the number of mice,[1],3
same,B3: D 14-D 21 95 percentile rise in the number of mice,[1],1
same,B4: D 21-D 28 95 percentile rise in the number of mice,[1],0
same,A1: difference between a highest median and a D 0 median (95 percentile),[2],0.14
same,A2: whether the 95 percentile of the last sampling is increased compared with the end point,[2],N
same,Total single peptide,[3],17.4
same,A: 95 percentile grouping number score,[1],4.5
same,B: Mouse performance score,[1],1.7
same,C1: #A timing-sequence response peptide fragment set,[1],133
same,C2: #B vaccine specificity peptide fragment set,[1],431
same,C3: Intersection of A and B,[1],1
same,C4: Percentage of the intersection in set B,[1],0.232
same,C: Timing-sequence response and specificity score,[1],0.5
